According to patent US8796329B2, “Method for controlling angiogenesis in animals” (Ziopharm Oncology, Inc., priority 2006, dated 2014):
Where “and” joins values, the source holds several entries; their conditions need not be identical. Identical values can stand only once.

Legend:
[1] = test system: HUVEC (Endothelia); assay: CellTiter-Glo Luminescent Cell Viability Assay, HUVEC; format: cell-based; details: Homo sapiens
Method: (§1) CellTiter-Glo Luminescent Cell Viability Assay (Promega Corporation) is based on quantification of ATP levels in cell cultures. The amount of ATP produced in cell culture reflects the number of viable cells. […] HUVECs and LL47 cells were seeded in 96-well plates in their growth medium. After 24 hours, various doses of the compound of formula (II) were added to both cultures side by side, having six replicates for each dose. At different treatment time points, CellTiter-Glo reagent were added to the cultures following the manufacturer's instructions; luminescence signals were measured with an EnVision™ Multilabel Reader (Perkin Elmer, Wellesley, Mass.) The blank control groups were given saline vehicle only, and positive control groups were given 10 μM T-araC (provided by Southern). Data was analyzed for the mean and standard deviation for each treatment condition. IC50 values of the compound of formula (II) against HUVEC and LL47 cell cultures were determined based on the dose response curves as shown in FIG. 1. There were several test drug concentrations with three treatment time points (2, 4, and 6 days). For the 6-day assay experiment, the culture media with different test concentration treatments was exchanged at Day 4.

[2] = test system: blood vessel density in Matrigel plugs (VEGF, FGFb, heparin as angiogenic stimuli); assay: Matrigel Plug in vivo assay, intravenous dosing; parameters: species or system C57BL/6 mice
Method: Female C57BL/6 mice around 10-weeks old and Matrigel Matrix High Concentration (from Becton Dickinson) mixed with 50 ng/mL VEGF, 50 ng/mL FGFb, and heparin 3 ng/mL as angiogenic stimuli were used for the Matrigel Plug experiments. There were two groups of mice, five mice in each group, with one group serving as a control and the second group expected to be treated once daily for 9 days with a compound of formula II at 100 mg/kg/dose (0.2 mL/10 g of body weight) by intravenous (i.v.) injection. The control group received oral saline as a vehicle. Each mouse received two Matrigel plugs. On Day 0, 500 μL Matrigel at 4° C. was subcutaneously injected to each side of the mouse, wherein the injection area was shaved. To increase the contact area of injected Matrigel into subcutaneous tissues and form a round shape plug, a wide subcutaneous pocket was formed by swaying the needle point right and left after a routine subcutaneous insertion. The injection was done rapidly with an appropriate size needle (21 G-25 G) to ensure the entire contents of the syringe were delivered in one plug. The injected Matrigel rapidly formed a single solid gel plug. […] Plugs from each group were collected at Day 12. The mice were euthanized and the mouse skin was pulled back to expose the plug. The plugs were dissected out and fixed in 10% formalin for histological analysis. Sections of 5 μm from paraffin-embedded plugs were stained with H&E. Blood vessel density in a cross sectional area of each Matrigel plug was analyzed using Image Pro-Plus software. For each group of mice, at least six Matrigel plugs were quantitatively analyzed to assess any statistical significant difference of microvessel density between groups. The quantitation of microblood vessel density using a compound of formula (II) is shown below.

[3] = test system: LL47 (Fibroblast); assay: CellTiter-Glo Luminescent Cell Viability Assay, LL47; format: cell-based; details: Homo sapiens
Method: as §1

[4] = test system: HUVEC (Endothelia); assay: 3H-thymidine incorporation assay for HUVEC; format: cell-based; details: Homo sapiens
Method: HUVEC cultures were seeded and treated in 96-well plates, as described above for the CellTiter-Glo viability assay. After treatment of HUVEC cultures with the compound of formula (II), 96-well plates were pulsed with 1 μCi of ^3H-thymidine for the final 6-18 hours of culture and then harvested with a semiautomatic cell harvester onto filters that bind the DNA. Samples were counted in a PerkinElmer Microbeta scintillation and luminescence counter (Trilux) to determine the amount of 3H-TdR uptake. The data was then transferred and processed using an Excel spreadsheet program to provide for the mean and standard deviation for % of control values. The results were analyzed by calculating IC50 values and including a table showing % of control values for each compound tested. There were several test drug concentrations with three treatment time points (2, 4, and 6 days) and 6 replicates for each test concentration as shown in FIG. 2. For the 6-day assay experiment, the culture media with different test concentration treatments was exchanged at Day 4.

[5] = test system: P388 murine leukemia; assay: Response of ip implanted P388 murine leukemia to ip and po administration; format: in vivo, mice; details: for treatment-related deaths / increase in lifespan (ILS) / median day of death: qld×9; for increase in lifespan (ILS): p=0.000 vs vehicle; for median day of death: vehicle control 11.5
Source text: Mice were implanted ip with one million cells of P388 murine leukemia using a 23-gauge needle. The P388 tumor line was maintained as an in vivo passage. The day of tumor implantation was designated as day 0, with treatment beginning on day 1 following tumor implantation. A sufficient number of mice were implanted so that animals with body weights in a range as narrow as possible were selected for the trial.
The compound of formula (II) was formulated in saline on the first day of treatment (day 1) at a concentration of 40 mg/mL. This solution was then diluted to the lower dosing concentrations of 30, 20, and 5 mg/mL. Enough of the compound of formula (II) was prepared on day 1 for the entire dosing period. Each dosing solution was then aliquoted for daily treatments, frozen at −20° C., and thawed on each day of injection. All injections were administered on the basis of exact body weight with the injection volume being 0.2 mL/10 g body weight.
The study consisted of four treatment groups of eight mice per group and one vehicle-treated control group with ten mice, for a total of 42 mice on the first day of treatment. The study design called for the compound of formula (II) to be administered once a day for nine consecutive days (qld×9) by oral gavage at dosages of 800, 600, and 400 mg/kg/dose and by ip injection at a dosage of 100 mg/kg/dose. The control group (group 1) was treated with the vehicle (saline), which was administered po on a qld×9 injection schedule.
The study was terminated 17 days after tumor implantation. Any animal that became moribund was euthanized prior to study termination.
Number of nonspecific deaths, median days of death, and the increase in lifespan based on the median day of death and expressed as a percentage (% ILS).
The individual animals' survival time was used as the endpoint in a life tables analysis (stratified Kaplan-Meier estimation followed by the Mantel-Haenszel log-rank test) in order to statistically compare the survival data between groups.

[6] = test system: blood vessel density in Matrigel plugs; assay: Matrigel Plug in vivo assay, oral dosing; details: 350 mg/kg/dose oral, once daily for 9 days, plugs Day 14, male CD2F1 mice
Method: Male CD2F1 mice were used for the Matrigel Plug experiment. There were two groups of mice, five mice in each group, with one group serving as a control and the second group was treated once daily for 9 days with a compound of formula II at 350 mg/kg/dose (0.2 mL/10 g of body weight) by oral administration in a saline solution. The control group received oral saline as a vehicle. Each mouse received two Matrigel plugs. On Day 0, 500 μL Matrigel at 4° C. was subcutaneously injected to each side of the mouse, wherein the injection area was shaved. The injection was done rapidly with an appropriate size needle (21 G-25 G) to ensure the entire contents of the syringe were delivered in one plug. The injected Matrigel rapidly formed a single solid gel plug. On Day 14, the mice were euthanized and the mouse skin was pulled back to expose the plug. The plugs were dissected out and fixed in 10% formalin for histological analysis. Sections of 5 μm from paraffin-embedded plugs were stained with haematoxylin and eosin (H&E) stain. Blood vessel density in a cross sectional area of each Matrigel plug was analyzed using Image Pro-Plus software. Each of the plugs was fixed in 10% formalin.

## C[As](C)SCC(NC(=O)CCC(N)C(=O)O)C(=O)NCC(=O)O (stereo not drawn) [Compound of Formula (II)]
[1]; 48 h, Day 2
  IC50: < 1500 µM
[1]; 96 h, Day 4
  IC50: < 1000 µM
[1]; 144 h, Day 6
  IC50: < 500 µM
[2]; 100 mg/kg/dose i.v. once daily, doses 6 and 8 skipped
  toxicity to C57BL/6 mice: higher than expected toxicity
[2]; 100 mg/kg/dose i.v., 7 doses, plugs collected Day 12, female C57BL/6 mice, animals #1-#4
  microblood vessel density, individual animal: 3 and 2 (2×) and 0
[2]; 100 mg/kg/dose i.v., 7 doses, plugs collected Day 12, female C57BL/6 mice, control average 48.8
  microblood vessel density, Average: 1.75
[3]; 48 h, Day 2
  IC50: < 5000 µM
[3]; 96 h, Day 4
  IC50: < 2000 µM
[3]; 144 h, Day 6
  IC50: < 1500 µM
[4]; Day 2
  IC50: < 100 µM
[4]; Day 4
  IC50: < 1000 µM
[4]; Day 6
  IC50: < 500 µM
[5]; 100 mg/kg/dose ip
  increase in lifespan, in words: tolerated and resulted in a minimal increase in lifespan
  treatment-related deaths: tolerated without treatment-related deaths
  increase in lifespan (ILS): 26%
  median day of death: 14.5 days
[5]; 400 mg/kg/dose po
  increase in lifespan, in words: tolerated and elicited a minimal increase in lifespan
  treatment-related deaths: No treatment-related deaths
  increase in lifespan (ILS): 30%
  median day of death: 15.0 days
[6]
  reduction of angiogenesis compared to the control: effective in reducing angiogenesis
